88 compounds from ChEMBL document CHEMBL1157539, “Thousands of chemical starting points for antimalarial lead identification” (Nature, 2010) can be followed below.

Structures are written as SMILES.

This assay concerns Plasmodium falciparum. The assay is described as follows: GSK_TCMDC: Inhibition of Plasmodium falciparum 3D7 in whole erythrocytes, using parasite LDH activity as an index of growth. Conditions: Plasmodium falciparum, 3D7. Format: functional, organism-based.
As for `O=C(Cc1ccc([N+](=O)[O-])cc1)N1CCc2cc3nccc(N4CCN5CCC[C@@H]5C4)c3cc21`, the XC50 worked out at 0.843 µM.
Under `CCCc1cc(NCC)nc(Nc2ccc(F)cc2)n1` stands 1.03 µM.
For `Clc1ccc(-c2cc(-c3csc(Nc4ccncc4)n3)on2)cc1`, the XC50 came to 0.133 µM.
Next, `CCc1cc(-c2onc(C)c2-c2cc3ccccc3o2)c(O)cc1OC`: 0.969 µM; `CCCCCCNC(=O)C1Cc2c([nH]c3ccccc23)C2(CCN(CCc3ccccc3)CC2)N1` (stereo not drawn): 1.14 µM.
Under `CN(C1CCC(NC(=O)/C=C/c2ccccc2)CC1)C1CC2(CCN(C(=O)OC(C)(C)C)CC2)c2ccccc21` (stereo not drawn) stands 0.822 µM; under `COc1ccc2nccc([C@@H](O)CN3CCC(NCc4cc5ccc(Cl)cc5[nH]4)CC3)c2c1`, 0.121 µM; under `Nc1nc(N)c2c(ccc3c2ccn3C2CCCCC2)n1`, 0.123 µM.
Under `CCOc1ccc(C(=O)Nc2cc(Cl)ccc2O)cc1Cl` stands 0.705 µM.
For the compound `COc1ccccc1C1CCN(C2CCC(NC(=O)/C=C/c3cc(F)cc(C(F)(F)F)c3)CC2)CC1` (stereo not drawn), the XC50 was found to be 0.901 µM.
Under `O=C(N[C@H](Cc1ccc(Cl)cc1)C(=O)N1CCN(c2ccnc3cc(Cl)ccc23)CC1)[C@H]1Cc2ccccc2CN1` stands 0.424 µM; under `Cc1cccc2nc(-c3ccc(-c4cccc(CNCC5CCCO5)c4)cc3)[nH]c12` (stereo not drawn), 0.7 µM.
Next, `CC(C)Cn1c(Sc2ccc(C#N)c([N+](=O)[O-])c2)nnc1-c1cccs1`: 1.08 µM; `OC(Cn1ccnc1)(c1ccc(Cl)cc1Cl)C1CCCCC1` (stereo not drawn): 0.984 µM.
With `CC(Cc1ccc(OCCN2CCN(c3ccc(Cl)cc3)CC2)cc1)NCC(O)c1cccc(C(F)(F)F)c1` (stereo not drawn), the XC50 amounted to 0.807 µM.
Next, `CN(C)S(=O)(=O)c1cc(-c2ccc3nccc(-c4cccc(S(N)(=O)=O)c4)c3c2)cnc1N`: 0.251 µM; `CC1(C)CCNc2cc(NC(=O)c3ccc(-c4ncccc4C(F)(F)F)cc3)ccc21`: 0.903 µM; `N#Cc1ccc(-c2ccc(OCC(O)CN3CCCN(Cc4cccc(O)c4Cl)CC3)cc2)cc1` (stereo not drawn): 0.69 µM.
Under `CCOC(=O)c1nc(-c2cccc(F)c2)[nH]c1N` stands 0.748 µM.
Next, `O=C(/C=C/c1ccc(-c2ccccc2)cc1)NCCCCCN1CCC(c2c[nH]c3ccccc23)CC1`: 0.854 µM; `CC(NC(C)(C)C)C(O)c1ccc(Cl)c(C(F)(F)F)c1` (stereo not drawn): 0.742 µM.
Compound `N#Cc1cccc(CNC(=O)c2cccc(Nc3ccnc4ccc(F)cc34)c2)c1` displayed an XC50 of 0.987 µM.
Next, `CCCCc1ccc(NC(=O)Nc2cccc(CCNCc3ccccc3)c2)cc1`: 0.881 µM; `COc1ccc(Nc2ncc3c(-c4cccc(NC(=O)c5ccccc5)c4)c[nH]c3n2)cc1OC`: 0.461 µM; `Cc1[nH]c(C)c(-c2ccc(-c3cccc(Cl)c3)nc2)c(=O)c1Cl`: 0.186 µM.
In turn, `COc1cc(NC(=O)c2cc([N+](=O)[O-])ccc2NC(=O)CNC2CCCCC2C)cc(OC)c1` (stereo not drawn) had an XC50 of 1.73 µM.
Next, `N#Cc1ccc(OCCN(Cc2ccccc2C(F)(F)F)c2ccc(C#N)c(C(F)(F)F)c2)cc1`: 0.277 µM; `CCc1cn(CCc2ccccc2)c2ccc(C(=O)N[C@@H](Cc3ccccc3)[C@H](O)CNC(C)(C)CCCC(C)C)cc12`: 0.219 µM; `O=C(Nc1cccc(F)c1)c1ccc(C(=O)NC2CCN(CC3CCCCC3)C2)cc1` (stereo not drawn): 0.929 µM.
Next, `CCCCN1C(=O)C2CC(=O)CC(C3CCCCC3)C2C1=O` (stereo not drawn): 0.888 µM; `C[C@H](NC(=O)C1CCCC1)C(=O)Nc1ccc(-c2ccc(-c3nc4cc(C(F)(F)F)ccc4[nH]3)cc2)cc1`: 0.272 µM.
In turn, `CCOC(=O)NOC(C(=O)O)c1ccccc1` (stereo not drawn) came in with an XC50 of 0.189 µM.
Under `CC1CN(Cc2cccc(-c3ccc(-c4nc5ccccc5[nH]4)cc3)c2)CC(C)O1` (stereo not drawn) stands 0.857 µM; under `CN(C)CCOc1ccc(-c2cc(-c3ccncc3)c(-c3ccc(Cl)c(O)c3)[nH]2)cc1`, 0.224 µM; under `CN(C)CCCn1cncc1-c1ccc2ncnc(Nc3ccc4c(cnn4Cc4ccccc4)c3)c2c1`, 0.726 µM.
Next, `CN(C)c1ccnc2ccc(NC(=O)Nc3ccnc4ccccc34)cc12`: 0.133 µM; `O=C(c1cc(-c2cccs2)n[nH]1)N1CCN(S(=O)(=O)c2ccc(Br)cc2)CC1`: 0.357 µM; `Cc1cc(Cl)c(S(=O)(=O)NC(C)(C)C)cc1OCC(=O)NC1CCCCC1`: 0.548 µM.
Next, `Cc1cnc(N2CCN(CC3CCN(C)CC3)CC2)nc1Oc1ccc(-n2ccnc2)cc1`: 0.725 µM; `CNc1ccc(CNCc2cccc(-c3ccc(-c4nc5cc(C(F)(F)F)ccc5[nH]4)cc3)c2)cc1`: 0.112 µM.
Consider `O=C(Nc1ccccc1Br)N[C@@H]1CCN(c2ccnc3ccccc23)C1`, for which the XC50 turned out to be 0.935 µM.
`Nc1ccc(-c2ccc3ccnc(N)c3c2)cn1` displayed an XC50 of 0.353 µM.
Under `Fc1ccc2[nH]c(-c3cccc(-c4cccc(CNCCN5CCNCC5)c4)c3)nc2c1` stands 0.842 µM; under `COc1ccc(-c2cccc(NC(=O)c3cccc(Cl)c3)c2)cc1CN1CCCC1`, 0.731 µM; under `O=C(Nc1ccc2c(c1)OCO2)c1cc(-c2cccnc2)cnc1NCc1ccc2c(c1)OCO2`, 1.19 µM.
Under `CCN(CC)CCCN(C(=O)c1cc2c(C)nn(-c3ccccc3)c2s1)c1nc(-c2ccc(OC)cc2)cs1` stands 1.15 µM.
Next, `Cc1nc(-c2ccc(-c3ccc(NC(=O)Nc4ccc(I)c(OCCN(C)C)c4)cc3)c(C)c2)no1`: 0.372 µM; `Cc1cccc(-c2nn(-c3ccccc3)c3[nH]c(=O)c(CN4CCSCC4)cc23)c1`: 1.01 µM.
As for `CS(=O)(=O)c1ccc(CNCc2cccc(-c3cccc(-c4nc5ccccc5[nH]4)c3)c2)cc1`, the XC50 was 0.59 µM.
Next, `FC(F)(F)c1ccc2[nH]c(-c3ccc(-c4ccc(CNCc5cnn(-c6ccccc6)n5)cc4)s3)nc2c1`: 0.456 µM; `CCCCCCC(N)c1ccc(OCCCOc2ccc(C(N)CCCCCC)cc2)cc1` (stereo not drawn): 1.14 µM; `Nc1nc(Nc2ccc(Cl)cc2)nc2ccccc12`: 0.732 µM.
In turn, `O=C(NCC1CCN(C/C=C/c2ccccc2)CC1)Nc1ccc(Oc2ccccc2)cc1` showed an XC50 of 1.04 µM.
Consider `COc1cc(OC)cc(C(=O)Nc2ccc(Nc3nc(C)cc(N(C)C)n3)cc2)c1`, for which the XC50 is 0.646 µM.
Consider `Cc1nc(C)c(-c2ccc(Cl)cc2)c(O)c1I`, for which the XC50 stood at 0.674 µM.
Under `COc1ccc2c(=NN=Cc3cccc(F)c3)cc(C)[nH]c2c1` stands 0.777 µM; under `Cc1ccccc1C1CCN(C2CCC(NC(=O)c3ccc(-c4ccccc4F)o3)CC2)CC1` (stereo not drawn), 1.05 µM; under `CCOc1ccc(C(=O)Nc2cc(Br)c3c(c2)CNCC3)cc1C#N`, 0.765 µM.
Next, `COc1ccccc1-c1nc2nc(N)nc(N)c2nc1-c1ccccc1OC`: 1.25 µM; `COc1ccc(CNCc2ccccc2)cc1-c1ccc(S(=O)(=O)NCCN2CCCC2)c(F)c1`: 1.14 µM; `c1cc(C2=NC3CCCCC3N2)ccc1OCCCOc1ccc(C2=NC3CCCCC3N2)cc1` (stereo not drawn): 0.731 µM.
Next, `Cc1ccc(C2CC(=O)CC(c3ccccn3)C2[N+](=O)[O-])cc1` (stereo not drawn): 0.859 µM; `O=C(Nc1ccc2c(c1)OCCO2)c1cc(-c2cccnc2)nc2ccc(Cl)cc12`: 0.714 µM; `CCCNCc1ccc(-c2ccc(CN(CCOC)C(=O)Cc3cccnc3)cc2)nc1`: 0.823 µM.
For the compound `Cc1ccccc1C1CCN(C2CCC(NC(=O)c3csc(-c4cccc(Cl)c4)n3)CC2)CC1` (stereo not drawn), the XC50 came to 1.15 µM.
Next, `COc1ccc2ncc(F)c(CCN3CCC(NCc4ccc5c(c4)CCO5)CC3)c2n1`: 0.677 µM.
Next, `CCCCCCN1CCCN(Cc2ccc(C(=O)Nc3ccc(F)c(F)c3)cc2)CC1`: 0.612 µM; `Cc1cccc2nc(-c3ccc(-c4cccc(CNCCc5ccncc5)c4)cc3)[nH]c12`: 0.204 µM; `CC(C)(C)c1ccc2[nH]c(-c3ccc(C(=O)NCCCc4ccccc4)cc3)nc2c1`: 0.801 µM.
Under `CC(C)NCc1ccc(-c2cccc(NC(=O)c3cccc(C#N)c3)c2)cc1` stands 0.406 µM.
The compound `Fc1ccc2c(NN=Cc3ccc(Cl)cc3)ccnc2c1` yielded an XC50 of 0.754 µM.
Next, `CN1C(=O)[C@H](NC(=O)[C@@H](Cc2ccccc2)NC(=S)Nc2ccccc2)N=C(c2ccccc2)c2ccccc21`: 0.855 µM; `Cc1ccc(CC(C)NCC(O)c2cccc(C(F)(F)F)c2)c(C)c1` (stereo not drawn): 0.703 µM.
Under `CC(=O)Nc1nc(C(=O)Nc2ccc(-c3cccc(-c4nc5ccccc5[nH]4)c3)cc2)cs1` stands 0.552 µM; under `COc1ccc2cc(-c3nc(-c4c(Cl)cccc4Cl)[nH]c3-c3ccnc(NCCCN4CCN(C)CC4)c3)ccc2c1`, 0.708 µM.
On to `CC(C)c1ccc(NS(=O)(=O)c2cccc(C(=O)NC3CCN(CC4CCCCC4)CC3)c2)cc1`, for which the XC50 was 1.3 µM.
Consider `CCCNCc1ccc(-c2ccc(CN(C(=O)c3nn(-c4ccccc4)nc3C)C3CCOCC3)cc2)nc1`, for which the XC50 was 0.144 µM.
Under `Cc1ccc(NC(=O)c2ccc(CN3CCCN(CC4CCCCC4)CC3)cc2)cc1` stands 0.797 µM.
Under `CN(C)c1ccc(CN2CCC(CNC(=O)c3cc(-c4cccc(F)c4)cs3)C2)cc1` (stereo not drawn) stands 1.02 µM; under `COc1ccc(CC(Cc2ccc(OC)cc2)NCC(O)c2cccc(Cl)c2)cc1` (stereo not drawn), 0.155 µM; under `Cc1cc2nc(-c3ccc(C(=O)NCc4cccc(F)c4)cc3)[nH]c2cc1C`, 0.962 µM.
Next, `CN1CCN(c2cccc(-c3nnc(-c4ccc(OCC(=O)NCc5cccc(C(F)(F)F)c5)c([N+](=O)[O-])c4)o3)c2)CC1`: 0.962 µM.
As for `COc1ccc(C2C(C(=O)OC3CCCC3)=C(C)NC3=C2C(=O)CCC3)cc1Br` (stereo not drawn), the XC50 came to 0.593 µM.
Under `Cc1noc(C)c1C(=O)N1CCCC(c2[nH]c3c(C)cccc3c2-c2ccncc2)C1` (stereo not drawn) stands 0.843 µM; under `COc1ccccc1C1CCN(C2CCC(NC(=O)/C=C/c3cccc(C(F)(F)F)c3)CC2)CC1` (stereo not drawn), 0.806 µM.
Next, `CC(C)NCc1cccc(-c2ccc(NC(=O)c3cccc(C#N)c3)cc2)c1`: 0.324 µM; `CC1(C)OC[C@]2(C)[C@@H](CC[C@]3(C)C4=CC(=O)CCC4CC[C@@H]23)O1` (stereo partly drawn): 0.282 µM.
Under `CC(Nc1ccnc2cc(Cl)ccc12)c1ccc(S(N)(=O)=O)cc1` (stereo not drawn) stands 0.933 µM.
